Data published in patent publication US20230172204A1 (BASF SE, priority 2020, published 2023).

What was measured:
[1] = test system: Phakopsora pachyrhizi (F129L); assay: Protective control of soybean rust on soybeans (PHAKPA P2); format: in vivo; conditions: for % PHAKPA (F129L) Disease level P2 at 4 ppm: protective P2, 4 ppm; for % PHAKPA (F129L) Disease level P2 at 4 ppm / % PHAKPA (F129L) Disease level P2 at 16 ppm: soybean rust F129L; for % PHAKPA (F129L) Disease level P2 at 16 ppm: protective P2, 16 ppm; for PHAKPA (F129L) Disease level (%) P2 at 4 ppm: P2 protective, % diseased leaf area
[2] = test system: Phakopsora pachyrhizi (F129L); assay: Protective control of soybean rust on soybeans (PHAKPA P6); format: in vivo; conditions: for % PHAKPA (F129L) Disease level P6 at 4 ppm: protective P6, 4 ppm; for % PHAKPA (F129L) Disease level P6 at 4 ppm / % PHAKPA (F129L) Disease level P6 at 16 ppm: soybean rust F129L; for % PHAKPA (F129L) Disease level P6 at 16 ppm: protective P6, 16 ppm; for PHAKPA (F129L) Disease level (%) P6 at 4 ppm: P6 protective, % diseased leaf area

SMILES	% PHAKPA (F129L) Disease level P2 at 4 ppm [1] [%]	% PHAKPA (F129L) Disease level P2 at 16 ppm [1] [%]	% PHAKPA (F129L) Disease level P6 at 4 ppm [2] [%]	% PHAKPA (F129L) Disease level P6 at 16 ppm [2] [%]	PHAKPA (F129L) Disease level (%) P2 at 4 ppm [1] [%]	PHAKPA (F129L) Disease level (%) P6 at 4 ppm [2] [%]
CO/C=C(/C(=O)OC)c1cccc(C)c1CO/N=C(\C)c1c(F)cccc1C(F)(F)F [compound 390]	22	0	18	2	–	–
CO/N=C(/C(=O)OC)c1cccc(C)c1CO/N=C(\C)c1ccc(OC(F)(F)F)cc1 [compound 133]	1	0	2	0	–	–
CO/N=C(/C(=O)OC)c1cccc(C)c1CO/N=C(\C)c1ccc(Cl)c(C(F)(F)F)c1 [compound 59]	67	20	63	11	–	–
CNC(=O)/C(=N/OC)c1cccc(C)c1CO/N=C(\C)c1cccc(C(C)(C)C)c1 [compound 100]	18	0	25	4	–	–
CC/C(=N\OCc1ccccc1/C(=N\OC)C(=O)NC)c1cccc(C(F)(F)F)c1 [reference compound]	–	–	–	–	60	70
CNC(=O)/C(=N/OC)c1cccc(CF)c1CO/N=C(\C)c1cccc(C(F)(F)F)c1 [compound 26]	12	0	19	1	–	–
CNC(=O)/C(=N/OC)c1cccc(C)c1CO/N=C(\C)c1cc(C(F)(F)F)cc(F)c1F [compound 197]	0	0	2	0	–	–
CNC(=O)/C(=N/OC)c1cccc(C)c1CO/N=C(\C)c1ccc(F)cc1F [compound 267]	2	0	10	4	–	–
COC=C(C(=O)OC)c1cccc(C)c1CON=C(C)c1cccc(C(F)(F)F)c1 [Ex. 231]	0	0	2	0	0	2
CNC(=O)/C(=N/OC)c1cccc(C)c1CO/N=C(\C)c1cccc(/C(C)=N/OC)c1 [Ex. 15]	4	0	24	1	–	–
CCc1ccc(/C(C)=N/OCc2c(C)cccc2/C(=N\OC)C(=O)OC)cc1 [compound 183]	16	0	38	2	–	–
CO/C=C(/C(=O)OC)c1cccc(C)c1CO/N=C(\C)c1c(Cl)ccc(Cl)c1OC(F)(F)F [compound 444]	100	47	83	53	–	–
C=Cc1cc(/C(C)=N/OCc2c(C)cccc2/C(=N\OC)C(=O)OC)cc(C(F)(F)F)c1 [compound 147]	73	18	95	18	–	–
CNC(=O)/C(=N/OC)c1cccc(C)c1CO/N=C(\C)c1ccc(Cc2ccccc2)cc1OC(F)(F)F [compound 419]	40	18	60	12	–	–
CO/N=C(/C(=O)OC)c1cccc(C)c1CO/N=C(\C)c1ccc(C)c(Cl)c1 [compound 163]	20	1	47	9	–	–
C#Cc1cc(F)c(F)c(/C(C)=N/OCc2c(C)cccc2/C(=N\OC)C(=O)OC)c1 [compound 242]	87	10	87	20	–	–
CNC(=O)/C(=N/OC)c1cccc(C)c1CO/N=C(\C)c1ccccc1C(F)(F)F [compound 38]	37	4	47	1	–	–
CO/N=C(/C(=O)OC)c1cccc(C)c1CO/N=C(\C)c1c(Cl)cc(Cl)cc1OC(F)(F)F [compound 427]	100	90	60	47	–	–
